Measurements as given in patent EP4653443A1, “STEREOISOMER AND DEUTERATED DERIVATIVE OF PYRAZOLOQUINAZOLINE COMPOUND AND USE” (Phil Rivers Technology Co., Ltd, priority 2023, dated 2024).
In brackets after ≈: the same amount, converted by molar mass.

Columns and labels:
in vivo = conditions: mouse, in vivo, iv, 2 mg/kg
Procedure: (§4) The objective of this study is to investigate the pharmacokinetic properties of the disclosed compounds after tail vein intravenous injection (IV) and oral administration (PO) in female CD1 mice. Plasma was sampleed at 0, 0.083, 0.25, 0.5, 1, 2, 4, 7 and 24 hours post-dosing, and the drug concentrations in plasma at different time points were detected by LC-MS/MS, and the relevant pharmacokinetic parameters were calculated using WinNonlin software.
(§5) Experimental female CD1 mice were purchased from SPF Laboratory Animal Technology Co., Ltd., aged 6-8 weeks with body weights of 20-30 g. The female CD1 mice were housed in a controlled environment (set temperature at 20-25°C and relative humidity at 40-70%). A 12-hour light/12-hour dark cycle was maintained unless interrupted by study-related events.
(§6) Compound solutions are prepared in an ultra-clean workbench and prepared immediately before use, and mixed thoroughly prior to use to ensure formulation homogeneity.
(§7) Vehicle composition: 10% DMSO+90% (20%SBE-β-CD) Table 4. Doses Used in IV Administration
(§8) Vehicle composition: 10% DMSO + 90% (20%SBE-β-CD) Table 5. Doses Used in PO Administration
(§9) Vehicle composition: 0.5% MC + 1% Tween-20 Table 6. Doses Used in PO Administration
(§10) Prior to the experiment, the animals were randomly grouped. The mice were fasted for 12 hours before drug administration, and free feeding was resumed 4 hours after administration.
(§11) All blood samples were transferred into plastic microcentrifuge tubes containing anticoagulant (EDTA-K2), and then centrifuged at 4000 g for 5 minutes at 4°C. The supernatant was transferred into a microcentrifuge tube without anticoagulant, and the plasma was stored in a -75±15°C refrigerator until detection.
(§12) The blood samples were purified by HPLC and analyzed by mass spectrometry to obtain the plasma concentration-time curve of the disclosed compound.
(§13) The pharmacokinetic parameters were estimated by non-compartmental model method (calculated by Phoenix WinNonlin software).

[1] = Metabolic stability in liver microsomes (mouse); format: in vitro ADME; conditions: for Residual Amount (%) 15 min / Residual Amount (%) 30 min / Residual Amount (%) 45 min / Residual Amount (%) 60 min: Mouse, first line of pair
Procedure: (§1) For negative samples, add 80µL of PBS (100mM, pH = 7.4) solution. Vortex at 800 rpm for 10 seconds, then pre-incubate in a 37°C water bath for 10 minutes. • 4) After pre-incubation, add 2 µL of control drug or test compound to each well to initiate the reaction. The reaction is carried out in a 37°C water bath at 60 rpm. • 5) At 0.5, 15, 30, 45, and 60 minutes, take 50 µL of the reaction system from each well and add it to 200 µL of cold methanol solution containing the internal standard to terminate the reaction. • 6) Mix thoroughly and centrifuge at 4000 rpm at 4°C for 30 minutes. • 7) Take 100µL of supernatant and mix with 100µL ultrapure water for liquid-mass analysis. *Internal standards: 50nM alprazolam, 50nM labetalol and 100nM ketoprofen
(§2) The internal standard method is adopted, and the ratio of the sample peak area to the internal standard peak area is used to calculate the residual percentage (taking the ratio of the sample peak area to the internal standard peak area at 0.5 minutes as 100%).

[2] = Pharmacokinetic study in mice (IV and PO, plasma LC-MS/MS); conditions: PO 5 mg/kg vs IV 2 mg/kg
Procedure: as §4, §5, §6, §7, §8, §9, §10, §11, §12, §13

[3] = Metabolic stability in liver microsomes (human); format: in vitro ADME; conditions: for Residual Amount (%) 15 min / Residual Amount (%) 30 min / Residual Amount (%) 45 min / Residual Amount (%) 60 min: Human, first line of pair
Procedure: as §1, §2

[4] = test system: pancreatic cancer cell line (PSN1); test: Proliferation inhibitory activity on cell line PSN1 (CellTiter-Glo, 72 hours); format: cell-based; conditions: for IC50: Homo sapiens, PSN1 cell proliferation; for Max Inhibition Percentage: PSN1 cells
Procedure: • a) Adherent cells need to be digested and centrifuged, while suspension cells can be directly centrifuged; • b) Resuspend with complete culture medium and count using an automatic cell counter; • c) Plate 6,000 cells per well for PSN1, and dilute the cell suspension to the required density; • d) Add 100 µL of cells per well, and culture overnight at 37°C in a 5% CO2 incubator to stabilize and balance the cells.
• a) Prepare the compound with DMSO as a solution of 200-fold final concentration; • b) Dilute the 200-fold compound to a 3-fold final concentration with complete culture medium; • c) Add 50 µL of the compound per well, use wells with the same volume of culture medium as controls, and continue culturing in a 37°C, 5% CO2 incubator for 72 hours.
• a) Equilibrate the cell plate and CTG reagent to room temperature; • b) Add 30 µL of CellTiter-Glo® reagent per well; • c) Incubate at room temperature for 15 minutes; • d) Detect with a microplate reader.
• 1) Calculate IC50 using GraphPad Prism 8; • 2) %Inh = (1-(Raw data - Meanmin) / (Meanmax - Meanmin))×100; • 3) Meanmax is the positive control well with only cells and the same volume of culture medium; • 4) Meanmin is the negative control well with only culture medium; • 5) Raw data refers to the signal values of wells with added compounds. For two replicate wells, they are denoted as Raw1 and Raw2.

Caco-2 cells = test: Permeability and transporter substrate test in Caco-2 cells (ABBA); format: in vitro ADME; conditions: Caco-2
Procedure: (§3) Apparent permeability coefficient (Papp, cm/s) and efflux ratio were calculated using Microsoft Excel.

[5] = as above; format: in vitro ADME; conditions: human, pH 7.4; for Papp A→B at 2 h, 5 µM: Caco-2, A to B, read-out: Average Papp PappA-B; for Papp B→A at 2 h, 5 µM: Caco-2, B to A, read-out: Average Papp PappB-A; for efflux ratio at 2 h, 5 µM: Caco-2, Papp(B-A)/Papp(A-B), read-out: Efflux Rate (ERa)
Procedure: as §3

[6] = Thermodynamic solubility test; format: physicochemical; conditions: phosphate buffer, aqueous buffer, thermodynamic from solid, pH 7.4, 25°C
Procedure: Weigh 7.098 g Na2HPO4 (Solution A) and dissolve in 500 mL ultrapure water via sonication; weigh 3.40 g KH2PO4 (Solution B) and dissolve in 250 mL ultrapure water via sonication. Slowly add Solution B dropwise to Solution A and adjust the pH to 7.40 ± 0.05.
Shake at 1100 rpm, 25°C for 5 minutes; • i) Add 10 µL of the 1 mg/mL DMSO sample and 10 µL of buffer to 980 µL of methanol, then dilute 10-fold with methanol:water (1:1) as the standard sample for LC-MS/MS analysis.
Solubility was calculated using Excel. Solubility(μM) = (Areafiltered × DFfiltered)/(Areastd × DFstd) × [std] × DFstd [formula]

| Structure (SMILES) | AUC(0-t) (in vivo) [ng·h/mL] | Vd (in vivo) [L/kg] | clearance (in vivo) [mL/min/kg] | half-life (in vivo) [min] | Residual Amount (%) 15 min [1] [%] | Residual Amount (%) 30 min [1] [%] | Residual Amount (%) 45 min [1] [%] | Residual Amount (%) 60 min [1] [%] | F [2] [%] | Residual Amount (%) 15 min [3] [%] | Residual Amount (%) 30 min [3] [%] | Residual Amount (%) 45 min [3] [%] | Residual Amount (%) 60 min [3] [%] | IC50 [4] [nM] | Max Inhibition Percentage ([4]; first column of this head) | Max Inhibition Percentage ([4]; second column of this head) | Classification Efflux Transporter Substrate (Caco-2 cells) | Papp A→B at 2 h, 5 µM [5] [×10⁻⁶ cm/s] | Papp B→A at 2 h, 5 µM [5] [×10⁻⁶ cm/s] | efflux ratio at 2 h, 5 µM [5] | also measured |
| --- | --- | --- | --- | --- | --- | --- | --- | --- | --- | --- | --- | --- | --- | --- | --- | --- | --- | --- | --- | --- | --- |
| NC(=O)c1nn(CCO)c2c1CCc1cnc(Nc3cc(N4CCN5CCC[C@@H]5C4)ccc3OC(F)(F)F)nc1-2 [CPD02] | 404 | 3.05 | 81.7 | 81.6 | 56.76 | 39.33 | 30.29 | 26.56 | 38.0 | 54.16 | 32.53 | 22.97 | 13.71 | 67.6 | 80.8 | 6.7 | Probable (ERa ≧ 2) | 7.83 | 23.8 | 3.04 | half-life ([1]; Mouse liver microsomes): 31.5 min; microsomal CLint ([1]; Mouse liver microsomes): 44 µL/min/mg; half-life ([3]; Human liver microsomes): 21.4 min; microsomal CLint ([3]; Human liver microsomes): 64.8 µL/min/mg; solubility at 24 h [6]: 2.1 µg/mL (≈ 3.76 µM) |
| NC(=O)c1nn(CCO)c2c1CCc1cnc(Nc3cc(N4CCN5CCC[C@H]5C4)ccc3OC(F)(F)F)nc1-2 [CPD03] | 433 | 4.29 | 79.1 | 226 | – | – | – | – | 16.2 | – | – | – | – | 256 | 73.6 | -3.1 | – | – | – | – | – |
| O=C(O)Cc1ccccc1Nc1c(Cl)cccc1Cl [Diclofenac, reference compound] | – | – | – | – | 61.24 | 56.66 | 51.87 | 45.26 | – | 10.78 | 5.62 | 3.65 | 2.93 | – | – | – | – | – | – | – | microsomal CLint ([1]; male, CD-1, pH 7.4, Mouse liver microsomes): 67.6 µL/min/mg; microsomal CLint at 2 µM ([3]; pH 7.4, Human liver microsomes): 194 µL/min/mg |
| C[C@H]1O[C@@H](O[C@H]2[C@@H](O)C[C@H](O[C@H]3[C@@H](O)C[C@H](O[C@H]4CC[C@@]5(C)[C@H](CC[C@@H]6[C@@H]5C[C@@H](O)[C@]5(C)[C@@H](C7=CC(=O)OC7)CC[C@]65O)C4)O[C@@H]3C)O[C@@H]2C)C[C@H](O)[C@@H]1O [Digoxin] | – | – | – | – | – | – | – | – | – | – | – | – | – | – | – | – | Probable (ERa ≧ 2) | 0.94 | 26.1 | 27.8 | – |
| COc1cc2nc(N3CCN(C(=O)c4ccco4)CC3)nc(N)c2cc1OC [Prazosin] | – | – | – | – | – | – | – | – | – | – | – | – | – | – | – | – | – | 8.97 | 29.6 | – | – |
| CC(C)NCC(O)COc1cccc2ccccc12 (centres unmarked) [Propranolol] | – | – | – | – | – | – | – | – | – | – | – | – | – | – | – | – | Unlikely or Not (ERa<2) | 22.3 | 14.7 | 0.66 | – |
